From the supplement of paper PMC6045584
± gives the standard deviation of the averaged measurements.

Columns and labels:
MK2206 = compound: NC1(c2ccc(-c3nc4ccn5c(=O)[nH]nc5c4cc3-c3ccccc3)cc2)CCC1 [MK2206]; assay: surviving fraction relative to DMSO-only wells; higher = less growth inhibition; details: exposure time: 5 days
Outline: (§1)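 Lines were retained only if, across three screens, replicate Pearson r was >0.7 and median Z' was >0.3. Viability was measured as CellTiter-Glo luminescence and reported as surviving fraction relative to the median of DMSO-only wells. Readings followed 10 minutes at room temperature, after log-phase tumour cells seeded at 250–500 per well in 384-well plates had been exposed, from 24 hours after seeding, continuously for five days to inhibitors at 0.5, 1, 5, 10, 50, 100, 500 and 1000 nM.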

MK0752 = compound: O=C(O)CC[C@H]1CC[C@@](c2cc(F)ccc2F)(S(=O)(=O)c2ccc(Cl)cc2)CC1 [MK0752]; assay: as above; details: exposure time: 5 days
Outline: as §1

| Test System | surviving fraction (MK2206; 0.5 nM) | surviving fraction (MK2206; 1 nM) | surviving fraction (MK2206; 5 nM) | surviving fraction (MK2206; 10 nM) | surviving fraction (MK2206; 50 nM) | surviving fraction (MK2206; 100 nM) | surviving fraction (MK2206; 500 nM) | surviving fraction (MK2206; 1000 nM) | surviving fraction (MK0752; 0.5 nM) | surviving fraction (MK0752; 1 nM) | surviving fraction (MK0752; 5 nM) | surviving fraction (MK0752; 10 nM) | surviving fraction (MK0752; 50 nM) | surviving fraction (MK0752; 100 nM) | surviving fraction (MK0752; 500 nM) | surviving fraction (MK0752; 1000 nM) |
| --- | --- | --- | --- | --- | --- | --- | --- | --- | --- | --- | --- | --- | --- | --- | --- | --- |
| SG27 HEADNECK | 1.15 ± 0.065 | 1.17 ± 0.066 | 1.07 ± 0.056 | 1.05 ± 0.089 | 0.843 ± 0.18 | 0.949 ± 0.12 | 0.948 ± 0.043 | 0.932 ± 0.042 | 0.973 ± 0.05 | 0.891 ± 0.052 | 1.05 ± 0.082 | 0.988 ± 0.096 | 1.01 ± 0.066 | 1.08 ± 0.047 | 0.933 ± 0.14 | 0.923 ± 0.16 |
| SG28 HEADNECK | 1 ± 0.1 | 1.16 ± 0.013 | 1.02 ± 0.14 | 1.05 ± 0.12 | 0.864 ± 0.061 | 0.852 ± 0.1 | 0.634 ± 0.0078 | 0.719 ± 0.059 | 1.15 ± 0.048 | 1.04 ± 0.062 | 1.05 ± 0.055 | 1.1 ± 0.027 | 0.982 ± 0.075 | 1.05 ± 0.044 | 1.12 ± 0.13 | 1.13 ± 0.11 |
| SG31 HEADNECK | 1.24 ± 0.29 | 0.996 ± 0.022 | 1.1 ± 0.28 | 1.19 ± 0.2 | 0.945 ± 0.16 | 0.916 ± 0.2 | 0.901 ± 0.13 | 0.88 ± 0.12 | 1.16 ± 0.18 | 1.07 ± 0.14 | 1.02 ± 0.2 | 0.991 ± 0.21 | 0.881 ± 0.14 | 0.963 ± 0.099 | 1.04 ± 0.17 | 1.11 ± 0.095 |
| SG32 HEADNECK | 1.04 ± 0.053 | 0.975 ± 0.3 | 1.08 ± 0.24 | 1.17 ± 0.19 | 1.51 ± 0.17 | 1.08 ± 0.13 | 0.964 ± 0.073 | 0.83 ± 0.1 | 1.11 ± 0.091 | 1.2 ± 0.039 | 1.26 ± 0.085 | 1.23 ± 0.11 | 1.21 ± 0.23 | 1.18 ± 0.039 | 0.972 ± 0.14 | 1.05 ± 0.086 |
| SG43 HEADNECK | 1.19 ± 0.62 | 0.92 ± 0.097 | 0.894 ± 0.2 | 0.741 ± 0.14 | 0.653 ± 0.19 | 0.505 ± 0.073 | 0.465 ± 0.17 | 0.317 ± 0.089 | 0.854 ± 0.3 | 0.901 ± 0.056 | 1.07 ± 0.43 | 0.862 ± 0.29 | 1.03 ± 0.18 | 0.934 ± 0.16 | 1.61 ± 0.055 | 1.08 ± 0.19 |
| SIHA CERVIX | 0.989 ± 0.041 | 1 ± 0.043 | 1.02 ± 0.092 | 1.04 ± 0.062 | 0.8803 ± 0.0068 | 0.876 ± 0.031 | 0.731 ± 0.013 | 0.719 ± 0.021 | 1.1 ± 0.046 | 1.15 ± 0.024 | 1.12 ± 0.044 | 1.15 ± 0.053 | 1.15 ± 0.025 | 1.21 ± 0.085 | 1.16 ± 0.11 | 1.14 ± 0.051 |
| SJSA1 BONE | 0.752 ± 0.027 | 0.825 ± 0.033 | 0.907 ± 0.028 | 0.804 ± 0.032 | 1.66 ± 0.096 | 1.7 ± 0.048 | 1.66 ± 0.13 | 1.71 ± 0.15 | 1 ± 0.03 | 1.09 ± 0.044 | 1.02 ± 0.089 | 1.09 ± 0.06 | 1.08 ± 0.036 | 1.14 ± 0.02 | 1.03 ± 0.027 | 1.07 ± 0.044 |
| SKBR3 BREAST | 0.983 ± 0.076 | 1.01 ± 0.16 | 0.942 ± 0.085 | 0.911 ± 0.032 | 0.724 ± 0.067 | 0.581 ± 0.028 | 0.368 ± 0.02 | 0.337 ± 0.015 | 0.854 ± 0.14 | 1.05 ± 0.18 | 1.02 ± 0.06 | 0.917 ± 0.086 | 1.11 ± 0.092 | 1.08 ± 0.05 | 0.961 ± 0.11 | 1.06 ± 0.11 |
| SNU475 LIVER | 0.973 ± 0.037 | 1.04 ± 0.053 | 1.01 ± 0.027 | 0.983 ± 0.043 | 0.9 ± 0.024 | 0.891 ± 0.018 | 0.767 ± 0.03 | 0.653 ± 0.1 | 1.06 ± 0.028 | 1 ± 0.036 | 0.97 ± 0.052 | 1.02 ± 0.011 | 1.01 ± 0.019 | 1.03 ± 0.036 | 1.03 ± 0.037 | 0.965 ± 0.036 |
| SUM44 BREAST | 1.09 ± 0.17 | 1.19 ± 0.28 | 1.14 ± 0.24 | 1.22 ± 0.31 | 0.993 ± 0.051 | 1.13 ± 0.21 | 1.02 ± 0.18 | 1.09 ± 0.34 | 0.998 ± 0.06 | 0.992 ± 0.035 | 0.983 ± 0.033 | 1.015 ± 0.0072 | 1.04 ± 0.051 | 1.09 ± 0.025 | 1.02 ± 0.031 | 1.05 ± 0.03 |
| SUM149 BREAST | 1.04 ± 0.049 | 1.05 ± 0.038 | 1.02 ± 0.058 | 0.997 ± 0.098 | 0.937 ± 0.036 | 0.953 ± 0.029 | 0.932 ± 0.082 | 0.872 ± 0.055 | 0.927 ± 0.072 | 0.995 ± 0.09 | 1.03 ± 0.062 | 1.05 ± 0.03 | 1.01 ± 0.08 | 0.98 ± 0.15 | 0.884 ± 0.014 | 0.935 ± 0.068 |
| SUM149.B1*.S BREAST | 1.08 ± 0.057 | 1.14 ± 0.093 | 1.12 ± 0.034 | 1.09 ± 0.076 | 1.05 ± 0.058 | 1.07 ± 0.045 | 0.998 ± 0.056 | 1.06 ± 0.036 | 1.11 ± 0.05 | 1.12 ± 0.044 | 1.1 ± 0.041 | 1.117 ± 0.004 | 1.18 ± 0.046 | 1.2 ± 0.029 | 1.03 ± 0.045 | 1.06 ± 0.068 |
| SUM159 BREAST | 1.08 ± 0.04 | 1.093 ± 0.0081 | 1.07 ± 0.024 | 1.11 ± 0.03 | 1.06 ± 0.015 | 1.08 ± 0.02 | 1.09 ± 0.029 | 1.08 ± 0.018 | 1.16 ± 0.12 | 1.15 ± 0.098 | 1.13 ± 0.075 | 1.13 ± 0.085 | 1.06 ± 0.044 | 1.11 ± 0.022 | 1.13 ± 0.057 | 1.11 ± 0.035 |
| SYO1 SYNOVIAL | 0.95 ± 0.012 | 0.975 ± 0.05 | 0.953 ± 0.022 | 1 ± 0.028 | 0.905 ± 0.032 | 0.885 ± 0.066 | 0.748 ± 0.051 | 0.702 ± 0.036 | 1 ± 0.024 | 0.981 ± 0.029 | 0.9374 ± 0.0056 | 1 ± 0.042 | 1.04 ± 0.082 | 1.01 ± 0.02 | 0.98 ± 0.052 | 0.971 ± 0.018 |
| T47D BREAST | 1.04 ± 0.03 | 1.06 ± 0.064 | 1 ± 0.036 | 0.945 ± 0.027 | 0.755 ± 0.032 | 0.654 ± 0.042 | 0.482 ± 0.021 | 0.449 ± 0.027 | 1.07 ± 0.025 | 1.07 ± 0.011 | 1.04 ± 0.022 | 1.1 ± 0.015 | 1.11 ± 0.071 | 1.14 ± 0.018 | 1.09 ± 0.044 | 1.11 ± 0.02 |
| U2OS BONE | 0.992 ± 0.017 | 1.03 ± 0.051 | 1.03 ± 0.027 | 1.05 ± 0.026 | 0.991 ± 0.015 | 0.941 ± 0.035 | 0.815 ± 0.0053 | 0.731 ± 0.055 | 1.05 ± 0.06 | 1.06 ± 0.015 | 1.08 ± 0.019 | 1.08 ± 0.034 | 1.1 ± 0.075 | 1.18 ± 0.031 | 1.02 ± 0.041 | 1.04 ± 0.058 |
| VCAP PROSTATE | 0.898 ± 0.12 | 0.848 ± 0.073 | 0.928 ± 0.069 | 0.936 ± 0.054 | 0.834 ± 0.13 | 0.754 ± 0.093 | 0.507 ± 0.066 | 0.362 ± 0.017 | 1.04 ± 0.051 | 1.15 ± 0.15 | 1.11 ± 0.14 | 1.19 ± 0.13 | 1.12 ± 0.065 | 1.22 ± 0.12 | 1.14 ± 0.076 | 1.12 ± 0.15 |
| VP229 BREAST | 1.1 ± 0.13 | 1.19 ± 0.16 | 1.19 ± 0.14 | 1.18 ± 0.15 | 1.07 ± 0.14 | 0.909 ± 0.18 | 0.713 ± 0.055 | 0.658 ± 0.12 | 1.39 ± 0.087 | 1.15 ± 0.2 | 1.13 ± 0.092 | 1.17 ± 0.07 | 1.1 ± 0.2 | 1.05 ± 0.14 | 1.01 ± 0.14 | 0.901 ± 0.084 |
| YAMATO SYNOVIAL | 1.13 ± 0.13 | 1.12 ± 0.023 | 1.16 ± 0.1 | 1.08 ± 0.063 | 0.84 ± 0.022 | 0.708 ± 0.036 | 0.521 ± 0.01 | 0.482 ± 0.027 | 1.34 ± 0.1 | 1.39 ± 0.13 | 1.51 ± 0.082 | 1.39 ± 0.058 | 1.49 ± 0.12 | 1.46 ± 0.11 | 1.49 ± 0.063 | 1.41 ± 0.1 |
| ZR751 BREAST | 0.962 ± 0.026 | 1.04 ± 0.088 | 0.678 ± 0.065 | 0.734 ± 0.064 | 0.407 ± 0.024 | 0.424 ± 0.027 | 0.308 ± 0.029 | 0.317 ± 0.029 | 1.21 ± 0.034 | 1.15 ± 0.031 | 1.13 ± 0.13 | 1.06 ± 0.089 | 1.09 ± 0.041 | 1.17 ± 0.083 | 1.14 ± 0.15 | 1.25 ± 0.24 |
